Here are results for seven compounds from patent publication US20190382445A1, “PEPTIDE HAVING MELANOGENESIS-INHIBITING ACTIVITY AND COMPOSITION COMPRISING SAME” (RUBY CROWN CO. LTD., priority 2016, published 2019).

The subject of data set [1] is B16-F10 cells. Description: Melanin content in α-MSH-stimulated B16-F10 cells (absorbance at 475 nm). The note with it: for melanin inhibitory effect of short peptides compared to B6 peptide: concentrations of 100 μM to 10 μM. In kind it is cell-based, murine. As to the method:
FIG. 2 is an experimental result showing the effect of each hexapeptide on cellular melanin biosynthesis. FIG. 2A represents a peptide wherein the type of amino acids fixed at 3 positions in the amino acid sequence of the amino acids, while the type of amino acids is altered at the other 3 positions. FIG. 2B represents a peptide wherein the amino acid sequence was defined. The cell-based assay in FIG. 2 is conducted by treating B16-F10 cells with a vehicle or peptide at a predetermined concentration, stimulating the same with α-MSH at 100 nM, and measuring absorbance at 475 nm after 72 hours to determine melanin content. Data are expressed in percent (%) as mean ± standard error (mean±SE, n=3) compared to the vehicle control group. In the figures, # means p<0.05 compared to the control group and * means p<0.05 compared to cells stimulated only with α-MSH. The amino acid sequences described in FIG. 2 are all represented in the direction from the amino terminal to the carboxy terminal. An amino functional group (—NH2) shown in the peptide terminal is one added by carboxy terminal amidation used in peptide synthesis.
The cell-based Assay in FIG. 3 is conducted by treating B16-F10 cells with a vehicle or peptide at a predetermined concentration, stimulating the same with 100 nMα-[…], and measuring the absorbance at 475 nm after 72 hours to determine the melanin content. Data are expressed in percent (%) as mean±standard, error (mean±SE, n=3) compared to the vehicle control group. In the figures, # means p<0.05 compared to the control group and * means p<0.05 compared to cells stimulated only with α-MSH. The amino acid sequences described in FIG. 2 are all represented in the direction from the amino terminal to the carboxy terminal. An acetyl group (Ac—) shown in the peptide amino terminal or an amino functional group (—NH2) shown in the carboxy terminal is one added by chemical synthesis of peptide.
(§1) Melanogenesis-inhibitory effects of the analyte (the peptides) was confirmed using the B16-F10 cell line and HEM. B16-F10 cells were treated with a test peptide at different concentrations for 60 minutes and stimulated using a 100 nM α-MSH for 72 hours. While HEM was also treated with the test peptide at different concentrations for 60 minutes and cultured with 100 nM α-MSH or 4.0 mM L-tyrosine while replacing the culture medium every 48 hours for 6 days. Using the culture medium used for culturing cells (conditioned medium), extracellular melanin level was measured. On the other hand, intercellular melanin was extracted with 0.1M NaOH at 60° C. for 60 minutes. A melanin content was determined by measuring an absorbance at 475 nm according to a spectroscopic method. The resultant values were subjected to normalization with respect to the total protein content of the cell.

The test system of data set [2] is human epidermal melanocytes (HEM). Description: Melanin content in HEM stimulated with α-MSH or L-tyrosine. Type of data set: cell-based.
Text: FIG. 5 is an experimental result showing effects of peptide B6 on cell viability of human epidermal melanocytes (HEM), melanin content and human tyrosinase (TYR) enzymatic activity. […] The intracellular and extracellular melanin contents were normalized with respect to the total protein content. […] Data are expressed in percent (%) as mean±standard error (mean±SE, n=3) compared to the vehicle control group. In the figures, #represents p<0.05 compared to the control group and * represents p<0.05 compared to cells stimulated only with tyrosine.
as §1
(§2) Cell viability was determined by treating the cells with B6 at different concentrations of up to 1 mM for 24 hours (A in FIG. 5). […] Further, effects on melanin content in the cells were examined by pre-treatment of the cells with B6 peptide at different concentrations of up to 300 μM, and then, stimulating the same with α-MSH at 100 nM or tyrosine at 4 mM for […] (B, C in FIG. 5). As a positive control group for melanogenesis inhibition, arbutin was used.

The test system is the same in data set [3]. Description: Cell viability by MTT assay, HEM. Type of data set: cell-based. Conditions: up to 300 μM, 24 hours (tested up to 1 mM). How it is done:
(§3) Cell viability was determined by 3-(4,5-dimethylthiazol-2-yl)-2,5-diphenyltetrazolium bromide (MTT) assay. B16-F10 cell line and HEM were treated with test peptides at different concentrations for 24 hours. After washing with PBS, the cells were in a culture medium 100 including 1 mg/mL MTT (Amresco, Solon, Ohio, USA) added thereto for 3 hours. After removing the culture medium, formazan accumulated in the cells was […] using isopropanol and subjected to determination of absorbance at 595 nm using a SPECTROstar Nano microplate reader (BMG LABTECH GmbH, Ortenberg, Germany).
as §2

For data set [4], the system named is B16-F10 cells. Description: Cell viability by MTT assay, B16-F10. In kind it is cell-based, murine. The note with it: up to 300 μM, 24 hours (tested up to 1 mM). How it is done: as §3
Cell viability was determined by treating the cells with B6 at different concentrations up to 1 mM for 24 hours (A in FIG. 4). […] Further, effects on melanin content in the cells were examined by pre-treatment of the cells with B6 peptide at different concentrations of up to 300 μM, and then, stimulating the same with α-MSH at 100 nM for 72 hours (B in FIG. 4).

Ends that are not written are not given here.

In the case of Phe-Ser-His-His-Leu (FSHHL; C2 peptide), in the data set on B16-F10 cells [1] (100 nM α-MSH, 72 hours), the “melanin inhibitory effect of short peptides compared to B6 peptide” value is listed as “did not substantially inhibit melanogenesis”.

Regarding “Ac-Ser-Tyr-Ser-Met-Glu-His-Phe-Arg-Trp-Gly-Lys-Pro-Val-NH2 (Ac-SYSMEHFRWGKPV-NH2) [α-MSH, agent of melanocortin 1 receptor used to stimulate melanogenesis, reference compound]”, the “melanin content, effect of stimulus” value in the data set with B16-F10 cells [1] (α-MSH alone, B16-F10 cells) was “increased melanin content”. Also, the “melanogenesis, effect of stimulus α-MSH” value in data set [2] (α-MSH at 100 nM, HEM) is on record as “did not show significant effect on melanogenesis”.

Consider FSHHLG [C1], for which, in the data set on B16-F10 cells [1] (100 nM α-MSH, 72 hours), the “melanin inhibitory effect of short peptides compared to B6 peptide” value is given as “melanin inhibitory effect similar to B6 peptide”.

For the compound “FSHHLG-NH2 [B6, Phe-Ser-His-His-Leu-Gly]”, the cell viability entry (in data set [3]; with B16-F10 cells [4]) was “did not affect the viability” each time.

Regarding `N[C@@H](Cc1ccc(O)cc1)C(=O)O` [L-tyrosine], the “extracellular and intracellular melanin contents, effect of stimulus L-tyrosine” value in data set [2] (tyrosine at 4 mM, HEM) was “increased extracellular and intracellular melanin contents”.

Ser-His-His-Leu-Gly (SHHLG; C3 peptide): the “melanogenesis inhibitory effect of short peptide” value with B16-F10 cells [1] (100 μM, 100 nM α-MSH, 72 hours) is given as “excellent in melanogenesis inhibitory effect”.

On to `OC[C@H]1O[C@@H](Oc2ccc(O)cc2)[C@H](O)[C@@H](O)[C@@H]1O` [arbutin], for which the “inhibition of increase in melanin content by L-tyrosine” value in data set [2] (HEM stimulated with 4 mM L-tyrosine, peptide up to 300 μM) is recorded as “effectively inhibited”.
